# Test results: US10669269B2, “Substituted N-(1H-indazol-4-yl)imidazo[1,2-a]pyridine-3-carboxamide compounds as type III receptor tyrosine kinase inhibitors” (ARRAY BIOPHARMA INC., priority 2010, dated 2020)
# Counter-ions that a name gives are not always drawn.
# Experiments:
# PDGFR beta = molecular target: T1, PDGFR beta (Homo sapiens, UniProt P09619); experiment: Phospho PDGFR LICOR Cell Assay (Example B); assay type: cell-based; conditions: averaged IC50; PDGFR beta phosphorylation in HS27 human fibroblast cell line, PDGF-BB stimulation 10 minutes, normalized to total ERK
# T1 construct: endogenous in cells; host or cells: HS27 human fibroblast cell line
# T1 sequence (P09619 33-1106): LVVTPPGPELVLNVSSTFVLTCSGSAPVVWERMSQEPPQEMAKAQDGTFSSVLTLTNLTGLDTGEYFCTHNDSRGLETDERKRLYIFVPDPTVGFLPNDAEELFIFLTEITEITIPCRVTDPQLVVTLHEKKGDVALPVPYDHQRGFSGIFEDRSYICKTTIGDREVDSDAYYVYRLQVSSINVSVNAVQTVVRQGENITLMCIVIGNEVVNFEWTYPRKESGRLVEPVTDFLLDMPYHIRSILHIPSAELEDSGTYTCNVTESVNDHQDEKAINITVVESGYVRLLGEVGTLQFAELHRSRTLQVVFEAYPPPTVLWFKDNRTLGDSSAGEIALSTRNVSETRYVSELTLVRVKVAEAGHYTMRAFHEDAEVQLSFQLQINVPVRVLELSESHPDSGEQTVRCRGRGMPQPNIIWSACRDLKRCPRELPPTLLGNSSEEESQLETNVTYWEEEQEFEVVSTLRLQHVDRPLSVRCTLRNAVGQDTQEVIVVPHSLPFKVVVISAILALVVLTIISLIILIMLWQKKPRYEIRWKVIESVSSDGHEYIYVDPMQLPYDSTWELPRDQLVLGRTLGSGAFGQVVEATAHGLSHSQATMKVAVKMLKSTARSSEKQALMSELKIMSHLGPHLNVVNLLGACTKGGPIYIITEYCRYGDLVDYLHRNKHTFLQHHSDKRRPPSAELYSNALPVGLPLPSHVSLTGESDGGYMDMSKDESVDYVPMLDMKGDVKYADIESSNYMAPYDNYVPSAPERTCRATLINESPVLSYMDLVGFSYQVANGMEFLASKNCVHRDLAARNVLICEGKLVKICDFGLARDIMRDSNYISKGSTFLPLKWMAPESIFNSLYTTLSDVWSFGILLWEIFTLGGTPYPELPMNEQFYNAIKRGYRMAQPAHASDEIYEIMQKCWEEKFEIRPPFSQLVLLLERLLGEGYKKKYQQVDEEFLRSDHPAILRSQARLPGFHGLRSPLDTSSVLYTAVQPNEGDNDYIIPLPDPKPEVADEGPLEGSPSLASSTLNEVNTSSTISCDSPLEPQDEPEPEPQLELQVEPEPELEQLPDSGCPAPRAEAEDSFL
# Description: Compounds were screened for inhibition of PDGFR beta phosphorylation in the HS27 human fibroblast cell line. Cells were seeded into a 96 well tissue culture plate, then incubated overnight in a 37° C./5% CO2 incubator. The following day, cells were treated for one hour with test compound dilutions. After stimulation with PDGF-BB ligand for 10 minutes, cells were washed with PBS and fixed in 3.7% formaldehyde in PBS for 10 minutes. This was followed by washing in PBS/0.2% Triton X-100 and permeabilizing in 100% MeOH for 10 minutes. Cells were incubated in blocking buffer for 1 hour. Antibodies to phosphorylated PDGFRβ and total ERK were added to the cells and incubated for 3 hours. After washing with PBS/0.2% Triton X-100, the cells were incubated with fluorescently-labeled secondary antibodies for an additional hour. Cells were then washed with PBS and analyzed for fluorescence at both wavelengths using the Odyssey Infrared Imaging System (LI-COR Biosciences). Phosphorylated PDGFR signal was normalized to total ERK signal. A standard 4-parameter logistic model was fit to the inhibitor dose response curves, with the IC50 being defined as the concentration of inhibitor giving 50 percent of control (POC).
# cFMS = molecular target: T2, cFMS (Homo sapiens, UniProt P07333); experiment: cFMS Cell-Based Assay (Example C); conditions: averaged IC50; phospho-cFMS in THP-1 cells stimulated with 250 ng/mL recombinant human MCSF; read-out: cFMS Cell ELISA IC50
# T2 construct: THP-1 cells (human acute monocytic leukemia cell line) were serum-starved for 4 hours; endogenous in cells; host or cells: THP-1 cells (human acute monocytic leukemia cell line)
# T2 sequence (P07333 20-972): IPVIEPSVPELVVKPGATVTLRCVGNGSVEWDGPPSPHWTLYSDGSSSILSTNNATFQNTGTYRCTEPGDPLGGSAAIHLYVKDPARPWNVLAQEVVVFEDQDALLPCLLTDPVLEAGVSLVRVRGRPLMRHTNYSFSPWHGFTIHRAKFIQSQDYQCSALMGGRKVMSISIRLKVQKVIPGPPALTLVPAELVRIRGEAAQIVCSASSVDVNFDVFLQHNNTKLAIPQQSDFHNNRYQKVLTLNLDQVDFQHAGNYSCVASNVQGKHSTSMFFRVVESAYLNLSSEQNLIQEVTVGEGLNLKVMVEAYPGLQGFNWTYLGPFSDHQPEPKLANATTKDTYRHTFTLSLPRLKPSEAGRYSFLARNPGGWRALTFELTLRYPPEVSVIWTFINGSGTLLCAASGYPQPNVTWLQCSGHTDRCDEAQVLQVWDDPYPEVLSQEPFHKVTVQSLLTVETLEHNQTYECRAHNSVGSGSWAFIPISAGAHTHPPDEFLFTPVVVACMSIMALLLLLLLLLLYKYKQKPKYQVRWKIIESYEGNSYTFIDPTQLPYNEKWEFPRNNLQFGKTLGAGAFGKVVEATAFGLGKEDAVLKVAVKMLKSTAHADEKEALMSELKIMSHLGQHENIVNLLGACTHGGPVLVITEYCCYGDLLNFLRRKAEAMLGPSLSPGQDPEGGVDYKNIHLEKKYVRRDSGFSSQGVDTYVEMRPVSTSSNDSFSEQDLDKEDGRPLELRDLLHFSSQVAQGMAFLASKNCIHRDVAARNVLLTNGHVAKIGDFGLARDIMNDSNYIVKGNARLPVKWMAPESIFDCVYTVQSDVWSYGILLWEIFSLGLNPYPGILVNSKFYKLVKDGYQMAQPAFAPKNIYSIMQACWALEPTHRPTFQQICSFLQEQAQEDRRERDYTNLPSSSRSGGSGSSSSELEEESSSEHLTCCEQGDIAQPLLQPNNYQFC
# Description: The ability of compounds of Formula I to inhibit cFMS activation in cells was determined by the following assay. THP-1 cells (human acute monocytic leukemia cell line) were serum-starved for 4 hours prior to treatment with compounds of Formula I for 1 hour. The concentration of compounds of Formula I was varied over a 9-point, 3-fold dilution series with 5,000 nM typically being the highest dose. Cell culture and treatment were carried out in a humidified 37° C., 5% CO2 incubator. Treated cells were stimulated with 250 ng/mL recombinant human MCSF for 1 minute to induce activation of cFMS. Cells were lysed in a manner which preserves phosphoproteins, and the lysate was analyzed by ELISA (R&D Systems, Human Phospho-M-CSF R DuoSet IC DYC3268), in which total cFMS protein in the lysate is captured and phosphotyrosine residues of cFMS are detected. A standard curve, made using purified phospho-M-CSF R protein, was used to quantify phospho-c-FMS in compound-treated wells. A standard 4-parameter logistic model was fit to the inhibitor dose response curves, with the IC50 being defined as the concentration of inhibitor giving 50 percent of control (POC).
# c-KIT = molecular target: T3, c-KIT (Homo sapiens, UniProt P10721); experiment: c-KIT Cell-Based Assay (Example D); conditions: averaged IC50; phospho-c-KIT in M-07e cells stimulated with 150 ng/ml recombinant human SCF; read-out: cKIT Cell ELISA IC50
# T3 construct: M-07e cells (human acute megakaryoblastic leukemia cell line) were serum-starved for 4 hours; endogenous in cells; host or cells: M-07e cells (human acute megakaryoblastic leukemia cell line)
# T3 sequence (P10721 26-976): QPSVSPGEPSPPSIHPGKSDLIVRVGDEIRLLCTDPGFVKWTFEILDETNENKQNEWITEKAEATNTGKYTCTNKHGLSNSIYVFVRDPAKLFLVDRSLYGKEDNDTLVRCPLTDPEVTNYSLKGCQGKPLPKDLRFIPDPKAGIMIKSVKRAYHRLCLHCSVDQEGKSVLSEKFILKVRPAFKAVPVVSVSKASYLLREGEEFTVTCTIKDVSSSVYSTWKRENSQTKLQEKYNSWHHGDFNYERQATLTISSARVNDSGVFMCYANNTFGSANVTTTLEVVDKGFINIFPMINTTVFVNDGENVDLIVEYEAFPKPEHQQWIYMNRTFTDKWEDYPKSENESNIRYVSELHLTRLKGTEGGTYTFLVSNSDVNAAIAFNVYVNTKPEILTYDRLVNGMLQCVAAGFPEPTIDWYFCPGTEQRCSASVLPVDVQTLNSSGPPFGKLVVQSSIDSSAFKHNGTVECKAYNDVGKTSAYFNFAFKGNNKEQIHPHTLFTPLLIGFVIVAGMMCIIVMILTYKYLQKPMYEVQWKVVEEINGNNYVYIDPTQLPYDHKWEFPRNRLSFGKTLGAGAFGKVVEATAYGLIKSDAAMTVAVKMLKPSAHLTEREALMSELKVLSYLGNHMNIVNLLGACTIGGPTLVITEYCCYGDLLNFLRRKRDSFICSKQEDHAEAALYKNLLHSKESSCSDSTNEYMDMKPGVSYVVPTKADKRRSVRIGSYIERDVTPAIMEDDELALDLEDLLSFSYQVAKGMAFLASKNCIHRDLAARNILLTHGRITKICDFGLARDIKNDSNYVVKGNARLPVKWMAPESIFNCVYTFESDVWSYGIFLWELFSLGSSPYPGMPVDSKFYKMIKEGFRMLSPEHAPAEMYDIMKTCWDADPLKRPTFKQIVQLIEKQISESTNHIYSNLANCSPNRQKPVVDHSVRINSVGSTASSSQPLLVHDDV
# Description: The ability of compounds of Formula I to inhibit c-KIT activation in cells was determined by the following assay. M-07e cells (human acute megakaryoblastic leukemia cell line) were serum-starved for 4 hours prior to treatment with compounds of Formula I for 1 hour. The concentration of compounds of Formula I was varied over a 9-point, 3-fold dilution series with 5,000 nM typically being the highest dose. Cell culture and treatment were carried out in a humidified 37° C., 5% CO2 incubator. Treated cells were stimulated with 150 ng/ml recombinant human SCF for 4 minutes to induce activation of c-KIT. Cells were lysed in a manner which preserves phosphoproteins, and the lysate was analyzed by ELISA (R&D Systems, Human Phospho-SCF R DuoSet IC DYC3527), in which total c-KIT protein in the lysate is captured and phosphotyrosine residues of c-Kit are detected. A standard curve, made using purified phospho-SCF R protein, was used to quantify phospho-c-KIT in compound-treated wells. A standard 4-parameter logistic model was fit to the inhibitor dose response curves, with the IC50 being defined as the concentration of inhibitor giving 50 percent of control (POC).
Structure (SMILES),IC50 (PDGFR beta) [nM],IC50 (cFMS) [nM],IC50 (c-KIT) [nM]
"Cc1nn(Cc2cc(C)n(C(C)C)n2)c2cccc(NC(=O)c3cnc4cc(OCCN5CC6(CN(C)C6)C5)ccn34)c12 [Example 8, N-(1-((1-Isopropyl-5-methyl-1H-pyrazol-3-yl)methyl)-3-methyl-1H-indazol-4-yl)-7-(2-(6-methyl-2,6-diazaspiro[3.3]heptan-2-yl)ethoxy)imidazo[1,2-a]pyridine-3-carboxamide]",32.6,33.6,122
"Cc1nn(Cc2cc(C)n(C(C)C)n2)c2cccc(NC(=O)c3cnc4cc(OCCN5C[C@@H](C)N(C)[C@@H](C)C5)ccn34)c12 [Example 9, N-(1-((1-isopropyl-5-methyl-1H-pyrazol-3-yl)methyl)-3-methyl-1H-indazol-4-yl)-7-(2-((3S,5R)-3,4,5-trimethylpiperazin-1-yl)ethoxy)imidazo[1,2-a]pyridine-3-carboxamide]",166,21.2,143
"Cc1nn(Cc2cc(C)n(C(C)C)n2)c2cccc(NC(=O)c3cnc4cc(OCCN5CCN(C(C)C)CC5)ccn34)c12 [Example 10, N-(1-((1-Isopropyl-5-methyl-1H-pyrazol-3-yl)methyl)-3-methyl-1H-indazol-4-yl)-7-(2-(4-isopropylpiperazin-1-yl)ethoxy)imidazo[1,2-a]pyridine-3-carboxamide]",40.8,25.3,141
"Cc1nn(Cc2cc(C)n(C(C)C)n2)c2cccc(NC(=O)c3cnc4cc(OCCN5CCCN(C)CC5)ccn34)c12 [Example 11, N-(1-((1-isopropyl-5-methyl-1H-pyrazol-3-yl)methyl)-3-methyl-1H-indazol-4-yl)-7-(2-(4-methyl-1,4-diazepan-1-yl)ethoxy)imidazo[1,2-a]pyridine-3-carboxamide]",46.5,26.2,157
"Cc1nn(Cc2csc(C(C)C)n2)c2cccc(NC(=O)c3cnc4cc(OCCN5CCN(C)CC5)ccn34)c12 [Example 12, N-(1-((2-isopropylthiazol-4-yl)methyl)-3-methyl-1H-indazol-4-yl)-7-(2-(4-methylpiperazin-1-yl)ethoxy)imidazo[1,2-a]pyridine-3-carboxamide]",44,11.4,50.4
"Cc1nn(Cc2csc(C(C)C)n2)c2cccc(NC(=O)c3cnc4cc(OCCN5CC6(CN(C)C6)C5)ccn34)c12 [Example 13, N-(1-((2-isopropylthiazol-4-yl)methyl)-3-methyl-1H-indazol-4-yl)-7-(2-(6-methyl-2,6-diazaspiro[3.3]heptan-2-yl)ethoxy)imidazo[1,2-a]pyridine-3-carboxamide]",11.3,12.9,76.3
"Cc1nn(Cc2csc(C(C)C)n2)c2cccc(NC(=O)c3cnc4cc(OCCN5CCN(C(C)C)CC5)ccn34)c12 [Example 15, 7-(2-(4-isopropylpiperazin-1-yl)ethoxy)-N-(1-((2-isopropylthiazol-4-yl)methyl)-3-methyl-1H-indazol-4-yl)imidazo[1,2-a]pyridine-3-carboxamide]",46.2,12,60.6
"Cc1nn(Cc2cc(C)n(C(C)C)n2)c2cccc(NC(=O)c3cnc4cc(OCCN5CCN(C)[C@@H](C)C5)ccn34)c12 [Example 29, (S)-7-(2-(3,4-dimethylpiperazin-1-yl)ethoxy)-N-(1-((1-isopropyl-5-methyl-1H-pyrazol-3-yl)methyl)-3-methyl-1H-indazol-4-yl)imidazo[1,2-a]pyridine-3-carboxamide]",44.1,28.6,162
"Cc1nn(Cc2csc(C(C)C)n2)c2cccc(NC(=O)c3cnc4cc(OCCN5CCN(C)[C@@H](C)C5)ccn34)c12 [Example 30, (S)-7-(2-(3,4-dimethylpiperazin-1-yl)ethoxy)-N-(1-((2-isopropylthiazol-4-yl)methyl)-3-methyl-1H-indazol-4-yl)imidazo[1,2-a]pyridine-3-carboxamide]",17.4,17.6,65.3
"Cc1nn(Cc2ccn(C(C)C)n2)c2cccc(NC(=O)c3cnc4cc(OCCN5CCN(C)CC5)ccn34)c12 [Example 48, N-(1-((1-isopropyl-1H-pyrazol-3-yl)methyl)-3-methyl-1H-indazol-4-yl)-7-(2-(4-methylpiperazin-1-yl)ethoxy)imidazo[1,2-a]pyridine-3-carboxamide bis hydrochloride]",47.7,13.3,45.1
"Cc1nn(Cc2ccn(C(C)C)n2)c2cccc(NC(=O)c3cnc4cc(OCCN5CCN(C(C)C)CC5)ccn34)c12 [Example 49, N-(1-((1-isopropyl-1H-pyrazol-3-yl)methyl)-3-methyl-1H-indazol-4-yl)-7-(2-(4-isopropylpiperazin-1-yl)ethoxy)imidazo[1,2-a]pyridine-3-carboxamide]",9.7,11.8,53.5
"Cc1ccc(-c2ccn3c(C(=O)Nc4cccc5c4c(C)nn5Cc4cccc(C)n4)cnc3c2)cn1 [Example 50, N-(3-methyl-1-((6-methylpyridin-2-yl)methyl)-1H-indazol-4-yl)-7-(6-methylpyridin-3-yl)imidazo[1,2-a]pyridine-3-carboxamide di-hydrochloride]",–,5.8,–
"Cc1cccc(Cn2nc(C)c3c(NC(=O)c4cnc5cc(OCCN6CCCC6)ccn45)cccc32)n1 [Example 55, N-(3-methyl-1-((6-methylpyridin-2-yl)methyl)-1H-indazol-4-yl)-7-(2-(pyrrolidin-1-yl)ethoxy)imidazo[1,2-a]pyridine-3-carboxamide dihydrochloride]",305,40.1,–
"Cc1cccc(Cn2nc(C)c3c(NC(=O)c4cnc5cc(-c6c(C)n[nH]c6C)ccn45)cccc32)n1 [Example 69, 7-(3,5-dimethyl-1H-pyrazol-4-yl)-N-(3-methyl-1-((6-methylpyridin-2-yl)methyl)-1H-indazol-4-yl)imidazo[1,2-a]pyridine-3-carboxamide]",–,8.2,–
"COCCNCCc1ccn2c(C(=O)Nc3cccc4c3c(C)nn4Cc3cccc(C)n3)cnc2c1 [Example 74, 7-(2-(2-methoxyethylamino)ethyl)-N-(3-methyl-1-((6-methylpyridin-2-yl)methyl)-1H-indazol-4-yl)imidazo[1,2-a]pyridine-3-carboxamide]",–,79.5,–
"O=C(Nc1cccc2c1cnn2CC1CCCCO1)c1cnc2ccccn12 (stereo not shown) [Example 128, N-(1-((tetrahydro-2H-pyran-2-yl)methyl)-1H-indazol-4-yl)imidazo[1,2-a]pyridine-3-carboxamide]",–,131,–
"COCCOc1ccn2c(C(=O)Nc3cccc4c3cnn4Cc3cccc(O)c3)cnc2c1 [Example 130, N-(1-(3-hydroxybenzyl)-1H-indazol-4-yl)-7-(2-methoxyethoxy)imidazo[1,2-a]pyridine-3-carboxamide]",114,442,–
"COCCOc1ccn2c(C(=O)Nc3cccc4c3cnn4-c3ccccc3)cnc2c1 [Example 133, 7-(2-Methoxyethoxy)-N-(1-phenyl-1H-indazol-4-yl)imidazo[1,2-a]pyridine-3-carboxamide]",1000,99.1,–
